Values quoted from earlier work, collected in US20100081719A1 (priority 2006, published 2010).

Key:
[1] = test system: subjects suffering from fibromyalgia syndrome; details: cited from earlier work; for Subjects with significant clinical improvement: after one month; for Difference from placebo: at three months
[2] = test system: patients with FMS; details: open-label; 11 completing patients; cited from earlier work

SMILES	Subjects with significant clinical improvement [1] [%]	Difference from placebo [1]	Completing patients with a positive response (50% or greater improvement in two different measurements of overall pain) [2]	Completing patients with insomnia requiring adjunctive medical therapy [2]
CN(C)CCC=C1c2ccccc2CCc2ccccc21 [amitriptyline]	21	no difference	–	–
CN(C)CCC=C1c2ccccc2C=Cc2ccccc21 [cyclobenzaprine]	12	no difference	–	–
COc1ccc(C(CN(C)C)C2(O)CCCCC2)cc1 (stereo not drawn) [venlafaxine]	–	–	Six of 11	3 of 11
